Entries after “also recorded” stand apart in the source; their conditions may differ. Read-outs that look alike come from different tables or passages of the source.
Columns and labels:
Type in all cases: in vivo, human
[1] = Effect of ketoconazole 200 mg BID on PK of mifepristone 600 mg OD and metabolites, with food (Example 3)
Method: A single dose of ketoconazole was administered on Day −1.
The study was a two period study design.

[2] = Safety assessment: adverse events, laboratory tests, ECG (Example 1)
Method: (§1) Subjects in both cohorts returned to the study center on Day 15 for safety monitoring, and completion of the Termination Visit procedures, followed by discharge from the study. Safety was assessed by spontaneously reported adverse events, physical examinations, and routine clinical laboratory tests. To the extent possible, any adverse events deemed study drug-related and that were ongoing at the time of discharge from the study were followed-up to resolution or until a determination is made that the unresolved event was stable.

[3] = Safety assessment: adverse events, physical examinations, laboratory tests (Example 2)
Method: Safety was assessed by spontaneously reported adverse events, physical examinations, and routine clinical laboratory tests. Adverse event data were tabulated. Physical findings and laboratory test results were listed by subject.

[4] = Cross-study comparison of exposure to mifepristone and metabolites with historic 1200 mg OD mifepristone study (Example 3)
[5] = Safety: adverse events, laboratory tests, vital signs, ECG (Example 3); conditions: mifepristone 600 mg OD Days 1-17, ketoconazole 200 mg BID Days 13-17
[6] = Liver function of a patient with excess cortisol on ketoconazole plus reduced mifepristone dose (Examples 4-7); conditions: concomitant ketoconazole
[7] = Effect of a 400 mg single dose of ketoconazole on PK of an 8-day regimen of 300 mg or 600 mg OD mifepristone, moderate fat breakfast (Example 2)
Method: This was an open-label study in healthy male subjects. […] The 400 mg single dose of ketoconazole was given to all subjects on day 8.
METHODOLOGY: Twelve subjects were enrolled, six in Cohort 1 and 6 in Cohort 2.
Subjects were discharged on Day 11.
Subjects were discharged on Day 11. Subjects in both cohorts returned to study center on Day 13 for safety monitoring, collection of the 120-hour PK draw, and completion of the Termination Visit procedures, followed by discharge from the study. To the extent possible, any adverse events deemed study drug-related and that were ongoing at the time of discharge from the study were followed-up to resolution or until a determination was made that the unresolved event was stable.
DIAGNOSIS AND MAIN […] FOR INCLUSION: Healthy male volunteers between the ages of 18 to 45 years of age with a body mass index (BMI) ranging between 19 and 32 kg/m2 and a weight of at least 60 kg (132 lbs) were enrolled. Subjects had no clinically significant abnormal findings on the physical examination, ECG, blood pressure, heart rate, medical history, or clinical laboratory results during screening. The QTc interval at screening was less than 450 msec.
DURATION OF TREATMENT: Up to a total of 28 days, including up to 2 weeks screening, dosing on Days 1-8, safety observation, and PK sample collection through Day 13.
Descriptive statistics count, mean, median, standard deviation, minimum, maximum, and % coefficient of variation) were provided. Ketoconazole concentrations were listed and summarized. GM means of Cmax and total AUC were compared for the single dose in this study to the combined data of reported 400 mg single doses of ketoconazole of healthy subjects from the literature.

[8] = Effect of oral ketoconazole 400 mg OD or 200 mg BID on plasma pharmacokinetics of a 300 mg single dose of mifepristone, fasted (Example 1); conditions: for AUC: male, human, plasma, oral, read-out: AUCtot (mean)
Description: This study was an open-label study in healthy male subjects.
Healthy male volunteers between the ages of 18 to 45 years of age with a body mass index (BMI) ranging between 19 and 32 kg/m2 and a weight of at least 60 kg (132 lbs) were enrolled. Subjects had no clinically significant abnormal findings on the physical examination, ECG, blood pressure, heart rate, medical history, or clinical laboratory results during screening. The QTc interval at screening was less than 450 msec.
In cohort 1, six subjects received ketoconazole 400 mg OD for 14 days.
Subjects remained in the clinic on Days 2 and 3 to receive 400 mg OD oral ketoconazole fasted, and for safety evaluation and collection of blood pharmacokinetic (PK) samples. Subjects were discharged from the clinic on Day 4 following administration of 400 mg OD oral ketoconazole fasted, and returned to the clinic the mornings of Days 5 through 13 to receive 400 mg OD oral ketoconazole fasted.
In cohort 2, six subjects received ketoconazole 200 mg BID for 14 days. […] All 12 subjects completed the study. Cohort 2 subjects participated in a Screening visit to assess eligibility and a check-in Day (Day −1) during which eligibility was re-confirmed. […] The evening of Day 1, subjects received 200 mg oral ketoconazole. Subjects remained in the clinic on Days 2, 3 and 4 to receive 200 mg BID oral ketoconazole, and for safety evaluation and collection of blood pharmacokinetic (PK) samples. Subjects were discharged from the clinic on Day 4 following evening administration of 200 mg oral ketoconazole, and returned to the clinic the morning and evening of Days 5 through 13 to receive 200 mg BID oral ketoconazole. Morning doses of ketoconazole on Days 0-13 were administered in the fasted state.
as §1
Descriptive statistics (count, mean, median, standard deviation, minimum, maximum, and % coefficient of variation) were provided. […] Comparisons with previous study data were made.

[9] = 900 mg mifepristone daily with inhibition of CYP3A (extrapolated from 600 mg data)
[10] = Test: Day 17, 600 mg mifepristone OD + 200 mg ketoconazole BID, Reference: Day 12, 600 mg mifepristone OD
[11] = Test: present study Day 17, 600 mg mifepristone OD + 200 mg ketoconazole BID, Reference: historic study Day 7, 1200 mg mifepristone OD alone, after 34% fat meal
[12] = Cohort 2 (600 mg OD), between Day 7 and Day 8
[13] = MIFE 300 mg single dose fasted, C1: Keto 400 mg OD

CC#C[C@]1(O)CC[C@H]2[C@@H]3CCC4=CC(=O)CCC4=C3[C@@H](c3ccc(N(C)C)cc3)C[C@@]21C [Mifepristone, 11β-(4-dimethylaminophenyl)-17β-hydroxy-17α-(1-propynyl)-estra-4,9-dien-3-one]
corresponding increase in mifepristone AUC [1, 9]: 38.01% | corresponding increase in mifepristone Cmax [1, 9]: 27.59% | concentrations on Day 17 compared with Day 12 ([1]; Day 17: mifepristone 600 mg daily + ketoconazole 200 mg twice daily, Day 12: mifepristone alone): higher | Ratio % Test/Reference, AUC0-24 (geometric mean ratio) [1, 10]: 138.01% | Ratio % Test/Reference, Cmax (geometric mean ratio) [1, 10]: 127.59% | effect of co-administration with ketoconazole on exposure ([1]; mifepristone 600 mg OD + ketoconazole 200 mg BID): increased | subjects with at least 1 treatment-emergent adverse event (TEAE) ([2]; 12 subjects, mifepristone 300 mg single dose with ketoconazole for 14 days): 25% | TEAEs considered by the investigator to be related to the drug ([2]; Example 1): No TEAE | serious adverse effect (SAE) ([2]; mifepristone 300 mg single dose with ketoconazole for 14 days): No subject experienced a serious adverse effect (SAE); also recorded: No subject experienced an SAE | TEAEs considered possibly or probably related to mifepristone administration ([3]; four subjects in Cohort 2 (600 mg)): dizziness, nausea, vomiting, dry mouth, and rash | SAE ([3]; mifepristone 300 or 600 mg OD 8 days, ketoconazole 400 mg Day 8): No subject experienced an SAE | subjects with at least 1 TEAE ([3]; twelve subjects, mifepristone 300 or 600 mg OD 8 days, ketoconazole 400 mg Day 8): 50% | exposures as share of those following the highest labeled dose of mifepristone (1200 mg daily) ([4]; 600 mg mifepristone OD + 200 mg ketoconazole BID): approximately 85% | Ratio % Test/Ref, AUC0-24 (geometric mean ratio) [4, 11]: 87.27% | Ratio % Test/Ref, Cmax (geometric mean ratio) [4, 11]: 84.64% | mifepristone exposure less than that of 1200 mg mifepristone in the absence of ketoconazole ([4]; mifepristone 600 mg co-administered with ketoconazole): 13-15% | deaths or SAEs [5]: No deaths or SAEs | severe TEAEs [5]: No severe TEAEs | liver function of the patient ([6]; mifepristone reduced from 600 mg to 300 mg daily): not significantly compromised | liver function of the patient ([6]; mifepristone reduced from 900 mg to 600 mg daily): not significantly compromised | liver function of the patient ([6]; mifepristone reduced from 1200 mg to 900 mg daily): not significantly compromised | liver function of the patient ([6]; mifepristone reduced from 1500 mg to 1200 mg daily): not significantly compromised | increase in AUC0-24 [7, 12]: 28% | increase in Cmax [7, 12]: 39% | AUC0-24 at 600 mg OD greater than at 300 mg OD ([7]; Day 7 without ketoconazole): 48% | Cmax at 600 mg OD greater than at 300 mg OD ([7]; Day 7 without ketoconazole): 42% | AUC0-24 at 600 mg OD greater than at 300 mg OD ([7]; Day 8 with 400 mg ketoconazole): 52% | Cmax at 600 mg OD greater than at 300 mg OD ([7]; Day 8 with 400 mg ketoconazole): 65% | half-life at 600 mg OD greater than at 300 mg OD ([7]; Day 8 with 400 mg ketoconazole): 13% | AUCt (AUC0-24 hours, mean) ([7]; MIFE 300 mg/d C1 Day 7, no ketoconazole): 37.734 µg·h/mL | Cmax (mean) ([7]; MIFE 300 mg/d C1 Day 8, 400 mg Keto single dose): 3240 ng/mL | geometric mean ratio (GMR) for AUCinf ([8]; Cohort 2 vs Cohort 1): 1.05 | geometric mean ratio (GMR) for Cmax ([8]; Cohort 2 vs Cohort 1): 1.15 | Mean Ratio Cmax (C2/C1) ([8]; Keto 200 mg BID vs 400 mg OD, MIFE 300 mg single dose): 1.15 ng/mL | T1/2 (mean) [8, 13]: 37.1 h | AUC [8, 13]: 117 µg·h/mL | AUC ([8]; MIFE 300 mg single dose fasted, C2: Keto 200 mg BID): 131 µg·h/mL

From patent US10842800B2, “Concomitant administration of glucocorticoid receptor modulators and CYP3A inhibitors” (Corcept Therapeutics, Inc., priority 2017, dated 2020)
